Test [1] concerns the target T1, KATP channels in large DRG neurons (Rattus norvegicus, UniProt P70673+Q09429).
T1 construct: native KATP channels in large DRG neurons; endogenous in cells; host or cells: acutely dissociated large-diameter neurons from rat L4/L5 dorsal root ganglia (sham-operated or spinal nerve ligated animals)
Briefly: Cell-attached single-channel patch-clamp recording of KATP channel activity (NPo). In kind it is cell-based. The conditions noted are these: for NPo 10 min after SNAP following pretreatment with ODQ: ODQ 10 μM for 20 min; for NPo 10 min after SNAP following pretreatment with ODQ / NPo 10 min after SNAP following pretreatment with KT 5823: then SNAP 100 μM; for NPo, DNP-induced channel opening: DNP 100 μM bath application, -60 mV; for baseline NPo after pretreatment with L-NAME: L-NAME 100 μM for 20 minutes; for NPo 10 min after SNAP following pretreatment with KT 5823: KT 5823 1 μM for 20 min. An excerpt: (§1) We harvested control (L4 and L5) or axotomized (L5) ganglia, from control (SS) or hyperalgesic rats (SNL) respectively, between the 17th and 28th postoperative days. We sacrificed animals by decapitation under deep isoflurane anesthesia, excised ganglia through a lumbar incision, and at the same time confirmed accuracy of initial surgery.
For patch-clamp recordings, we placed excised DRG into separate 35 mm Petri dishes containing cold, oxygenated, Hanks Balanced Salt Solution (Gibko, Invitrogen, Grand Islan, NY), and minced them with iris scissors. We dissociated ganglia enzymatically in a solution containing 0.25 ml 0.05% w:v liberase blendzyme 2 (Roche Diagnostics Corp., Indianapolis, IN) and 0.25 ml DMEM/F12 with glutaMAX (Dulbecco's modified Eagle's medium F12; Gibco, Invitrogen Corp., Carlsbad, CA) in an incubator at 37°C for 30 min. […] Finally, we plated cells onto poly-l-lysine-coated 12-mm glass coverslips (Deutsche Spiegelglas; Carolina Biologic Supply, Burlington, NC), kept them in a humidified incubator at 37°C with 95% air and 5% CO2, and studied them within 3–8 h of dissociation.
We visualized plated neurons using an inverted Nikon Diaphot 300 microscope with Hoffman modulation optic system. […] Large neuronal somata, roughly correspond to large, myelinated Aβ fibers.
(§2) We recorded current passing through single channels in inside-out or cell-attached patch configurations. In cell-attached patches, both bath and pipette (extracellular) solutions were composed of the following: 140 mM KCl, 10 mM HEPES, 5.5 mM dextrose, and 1 mM EGTA. In inside-out patches, the bath (intracellular) solution contained 140 mM KCl, 1.2 mM MgCl2, 10 mM HEPES, 1.5 mM EGTA and 5.5 mM dextrose. The pipette (extracellular) solution was of the same composition as that used in cell-attached recordings. The pH of all solutions was adjusted to 7.4 with KOH. Osmolality was adjusted approximately to 300 mOsm/l by adding sucrose if necessary. We pulled patch micropipettes from borosilicate glass capillaries using a Flaming/Brown micropipette puller, model P-97 (Sutter, San Rafael, CA) and flame polished them with a microforge polisher (Narishige, Tokyo, Japan) prior to use. Their resistance ranged between 3 and 6 MΩ when filled with the internal solution, and placed into the recording solutions.
Sampling frequency of single-channel data was 5 KHz with a low-pass filter (1 KHz). […] We applied a conventional 50% current amplitude threshold level criterion to determine open events. Channel open probability (Po) was determined from the ratios of the area under the peaks in the amplitude histograms fitted by a Gaussian distribution. We calculated channel activity as NPo (where N is the number of observed channels in the patch) from data samples of either 30 s (in inside-out recordings), or 60 s (in cell-attached recordings), in the steady state. In inside-out recordings, NPo of the KATP channels was normalized to the baseline NPo value obtained before test drugs at bathing solution without ATP (indicating relative channel activity).

Test [2] addresses T1, KATP channels in large DRG neurons. Put plainly: Excised inside-out (cell-free) patch-clamp recording of KATP channel activity. Type of test: biochemical.
Text: as §1
For patch-clamp recordings, we placed excised DRG into separate 35 mm Petri dishes containing cold, oxygenated, Hanks Balanced Salt Solution (Gibko, Invitrogen, Grand Islan, NY), and minced them with iris scissors. We dissociated ganglia enzymatically in a solution containing 0.25 ml 0.05% w:v liberase blendzyme 2 (Roche Diagnostics Corp., Indianapolis, IN) and 0.25 ml DMEM/F12 with glutaMAX (Dulbecco's modified Eagle's medium F12; Gibco, Invitrogen Corp., Carlsbad, CA) in an incubator at 37°C for 30 min. We then removed the supernatant after centrifugation and re-incubated cells at 37°C for another 30 min in 0.2 ml 0.0625% trypsin (Sigma, St. Louis, MO) and 0.0125% deoxyribonuclease 1 (150,000 U, Sigma, St. Louis, MO) in 0.25 ml DMEM. We then isolated cells by centrifugation (600 rpm for 5 min) after adding 0.25 ml trypsin inhibitor 0.1% w:v (Sigma St. Louis, MO), and re-suspended them in a culture medium consisting of 0.5 mM glutamine, 0.02 mg/ml gentamicin (Gibco, Invitrogen Corp., Carlsbad, CA), 100 ng/ml nerve growth factor 7S (Alomone Labs, Jerusalem, Israel), 2% (vol/vol) B-27 supplement (Gibco, Invitrogen Corp., Carlsbad, CA), and 98% (vol/vol) neural basal medium A (Gibco, Invitrogen Corp., Carlsbad, CA). Finally, we plated cells onto poly-l-lysine-coated 12-mm glass coverslips (Deutsche Spiegelglas; Carolina Biologic Supply, Burlington, NC), kept them in a humidified incubator at 37°C with 95% air and 5% CO2, and studied them within 3–8 h of dissociation.
We visualized plated neurons using an inverted Nikon Diaphot 300 microscope with Hoffman modulation optic system. We selected only large diameter neuronal somata (≥ 40 μm in diameter) because we have previously shown that only these develop KATP current alterations, as well as changes indicative of increased excitability after painful-like nerve injury by SNL [74]. Large neuronal somata, roughly correspond to large, myelinated Aβ fibers.
as §2
We recorded single channel currents at room temperature (20–25°C) using an Axon CNS Multiclamp 700B amplifier, digitized them using an analog-to-digital converter (Axon CNS DigiData 1440A; Axon Instruments, Foster, CA), and stored them into a PC. Sampling frequency of single-channel data was 5 KHz with a low-pass filter (1 KHz). We used pClamp version 10.2 software (Axon Instruments) for data acquisition and analysis. We applied a conventional 50% current amplitude threshold level criterion to determine open events. Channel open probability (Po) was determined from the ratios of the area under the peaks in the amplitude histograms fitted by a Gaussian distribution. […]

[3] abbreviates: agent alone, vs. baseline/control.

T1 sequence (Q09429 whole entry): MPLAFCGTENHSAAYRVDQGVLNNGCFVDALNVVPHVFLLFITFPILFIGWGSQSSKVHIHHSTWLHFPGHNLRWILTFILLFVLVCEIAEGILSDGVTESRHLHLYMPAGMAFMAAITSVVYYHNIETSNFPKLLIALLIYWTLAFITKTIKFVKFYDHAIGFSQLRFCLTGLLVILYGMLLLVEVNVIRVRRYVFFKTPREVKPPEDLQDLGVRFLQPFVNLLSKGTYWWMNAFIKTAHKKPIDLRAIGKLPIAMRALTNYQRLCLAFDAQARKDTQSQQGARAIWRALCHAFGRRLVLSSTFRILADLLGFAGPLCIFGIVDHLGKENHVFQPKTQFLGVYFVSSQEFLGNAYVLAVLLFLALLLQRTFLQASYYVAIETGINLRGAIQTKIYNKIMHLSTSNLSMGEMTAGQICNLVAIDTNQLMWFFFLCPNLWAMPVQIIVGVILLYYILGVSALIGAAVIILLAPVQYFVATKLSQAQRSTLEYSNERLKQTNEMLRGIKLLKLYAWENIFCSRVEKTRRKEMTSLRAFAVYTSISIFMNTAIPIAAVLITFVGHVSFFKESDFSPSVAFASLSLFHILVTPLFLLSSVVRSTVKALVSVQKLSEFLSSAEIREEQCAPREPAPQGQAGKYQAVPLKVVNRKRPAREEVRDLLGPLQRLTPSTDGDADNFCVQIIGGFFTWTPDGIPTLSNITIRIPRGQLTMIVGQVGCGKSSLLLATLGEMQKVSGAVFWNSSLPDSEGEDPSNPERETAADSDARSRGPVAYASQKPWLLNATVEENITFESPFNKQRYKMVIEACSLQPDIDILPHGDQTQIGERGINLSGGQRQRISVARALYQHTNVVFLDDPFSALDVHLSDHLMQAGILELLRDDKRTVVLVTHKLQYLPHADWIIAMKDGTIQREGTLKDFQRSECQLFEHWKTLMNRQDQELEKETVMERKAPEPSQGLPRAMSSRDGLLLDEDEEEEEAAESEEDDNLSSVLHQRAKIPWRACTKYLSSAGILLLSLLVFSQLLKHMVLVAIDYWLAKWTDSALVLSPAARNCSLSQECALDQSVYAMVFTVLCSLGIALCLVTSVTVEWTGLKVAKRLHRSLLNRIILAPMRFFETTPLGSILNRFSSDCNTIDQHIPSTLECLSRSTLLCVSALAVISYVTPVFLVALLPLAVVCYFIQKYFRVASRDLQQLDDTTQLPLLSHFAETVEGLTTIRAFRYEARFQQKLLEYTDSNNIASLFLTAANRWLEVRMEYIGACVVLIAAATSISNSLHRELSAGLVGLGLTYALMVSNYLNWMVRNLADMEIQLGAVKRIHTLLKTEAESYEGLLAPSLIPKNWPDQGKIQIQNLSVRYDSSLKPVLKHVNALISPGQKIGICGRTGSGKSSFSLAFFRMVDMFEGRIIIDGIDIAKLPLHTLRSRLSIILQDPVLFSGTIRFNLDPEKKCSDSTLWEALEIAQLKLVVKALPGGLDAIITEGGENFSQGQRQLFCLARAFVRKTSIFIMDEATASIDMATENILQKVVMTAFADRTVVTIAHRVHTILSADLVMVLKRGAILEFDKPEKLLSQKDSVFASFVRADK
T1 sequence (P70673 whole entry): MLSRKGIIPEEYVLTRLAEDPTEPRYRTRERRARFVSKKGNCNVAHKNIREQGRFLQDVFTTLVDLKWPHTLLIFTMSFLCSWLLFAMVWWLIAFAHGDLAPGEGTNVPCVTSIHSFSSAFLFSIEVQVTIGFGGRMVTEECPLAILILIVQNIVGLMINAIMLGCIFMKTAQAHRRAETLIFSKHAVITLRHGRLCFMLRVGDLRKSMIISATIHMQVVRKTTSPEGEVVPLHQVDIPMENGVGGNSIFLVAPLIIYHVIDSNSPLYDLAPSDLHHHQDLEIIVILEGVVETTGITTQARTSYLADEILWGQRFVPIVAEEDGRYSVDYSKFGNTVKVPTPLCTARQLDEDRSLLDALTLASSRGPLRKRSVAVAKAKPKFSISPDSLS

As to `O=c1onc2cnc3ccccc3n12` [ODQ, 1H-[1,2, 4] oxadiazolo [4,3-a] quinoxalin-1-one], the “NPo 10 min after SNAP following pretreatment with ODQ” value in test [1] (SNL neurons, n = 6) came to 0.27 ± 0.16; in test [1] (SS neurons, n = 6) it was 0.25 ± 0.09. The “direct effect on KATP channels in inside-out patches” value (from here on “direct effect on KATP channels”) in test [2] (setting [3]) is listed as “neither ODQ nor KT 5823 had any direct effect”.

Turning to `O=[N+]([O-])c1ccc(O)c([N+](=O)[O-])c1` [DNP, 2,4-Dinitrophenol], the “NPo, DNP-induced channel opening” value in test [1] (SNL neurons, n = 8) was found to be 0.208 ± 0.16; in test [1] (SS neurons, n = 8) it was 0.442 ± 0.26. Besides, in test [2] (DNP 100 μM, SS and SNL, vs. baseline), the “direct effect on KATP channels” value is listed as “no direct effect”.

On to `CCCOc1ccccc1-c1nc2nn[nH]c2c(=O)[nH]1` [zaprinast], for which, in test [1] (zaprinast, control and SNL neurons, data not shown), the “effect on KATP channel activity” value is listed as “no effect”.

Regarding `CCN1C(=O)C=CC1=O` [NEM, N-ethylmaleimide], the “effect on basal channel activity” value in test [2] (NEM 5 mM, 1 mM [ATP]i, n = 6) is given as “significantly decreased”. Further, the “effect on the activating effect of SNAP on KATP channels” value in test [2] (SS neurons, NEM 5 mM before SNAP 100 μM, 1 mM [ATP]i, n = 6) is reported as “completely eliminated”.

For the compound `Nc1nc2c(nc(Br)n2[C@@H]2O[C@@H]3COP(=O)([O-])O[C@H]3[C@H]2O)c(=O)[nH]1.[Na+]` [8-Br-cGMP, 8-bromo-cGMP sodium salt], in test [1] (8-Br-cGMP 100 μM), the “time to steady-state activation after exposure” value lay in the range of 2 to 3 min. For the same compound, in test [1] (8-Br-cGMP at least 5 min after SNAP 100 μM, SS and SNL neurons, n = 5 each), the “effect when applied after SNAP-induced steady-state activation” value is on record as “additional further channel opening”. The “NPo 5 min after application of 8-Br-cGMP” value in test [1] (SNL neurons, 8-Br-cGMP 100 μM, n = 7) is on record as 0.17 ± 0.06; in test [1] (SS neurons, 8-Br-cGMP 100 μM, n = 8) it was 0.22 ± 0.08.

Consider `COC(=O)[C@@H](N)CCCNC(N)=N[N+](=O)[O-]` [L-NAME, NG-nitro-L-arginine methyl ester], for which the “baseline NPo after pretreatment with L-NAME” value in test [1] (SNL neurons, n = 7) worked out at 0.06 ± 0.04; in test [1] (SS neurons, n = 7) it was 0.114 ± 0.06. The “direct effect on KATP channels” value in test [2] (setting [3]) is “no direct effect”.

Turning to `COC(=O)[C@@]1(OC)C[C@H]2O[C@]1(C)n1c3ccccc3c3c4c(c5c6ccccc6n2c5c31)C(=O)N(C)C4` [KT 5823], the “effect of pretreatment on 8-Br-cGMP-induced KATP channel activation” value in test [1] (KT 5823, SS and SNL neurons) is given as “significantly reduces”. The “NPo 10 min after SNAP following pretreatment with KT 5823” value in test [1] (SNL neurons, n = 6) is 0.26 ± 0.19; in test [1] (SS neurons, n = 5), 0.14 ± 0.17. Moreover, the “direct effect on KATP channels” value in test [2] (setting [3]) is listed as “neither ODQ nor KT 5823 had any direct effect”.
